Laboratory results reported in US20250186379A1, “METHODS AND AGENTS FOR DECREASING INSULIN RESISTANCE” (Whitehead Institute for Biomedical Research, priority 2021, published 2025).
Entries after “also recorded” stand apart in the source; their conditions may differ.

Tests used:
SMAD7 = SMAD7 transcript levels (RNA-seq, RT-qPCR) in HepG2 cells; assay type: cell-based, human
Experimental: RNA was extracted using TRIzol™ reagent following the manufacturer's instructions (Thermo Fisher Scientific, 15596026). cDNA synthesis was performed using qScript cDNA Supermix according to the manufacturer's instructions, using 1000 ng RNA as input (qScript cDNA SuperMix, QuantaBio—95048-500). qPCR was performed on a Thermo Fisher Scientific QuantStudio 6 machine using Fast SYBR™ Green Master Mix (Thermo Fisher Scientific 4385618). Expression data is presented after calculating the relative expression compared with the housekeeping gene RPLP0, using the equation Relative Quantification (RQ)=100/(2^(Target Gene Ct−RPLP0Ct). When data is reported relative to a sample condition, the condition of reference was set as 1 and the data of the other conditions were reported as a ratio (condition/condition of reference).
RNA sequencing was performed by the Whitehead Institute Genome Technology Core. Libraries were prepared using the KAPA HyperPrep stranded RNA kit following manufacturer's instructions. Samples were sequenced on a HiSeq2500 in High-Output mode generating 50 bases, single-end reads.
RNA-sequencing (RNA-seq) bioinformatics analysis was performed on the Whitehead High-Performance Computing Facility using the nf-core RNA-seq pipeline v1.4.2 (81) with Nextflow v20.04.1. Quality control of .fastq files was performed with FastQC v0.11.8. The reads were single-end and the strandedness was set to reverse. Low quality sequences were trimmed using Trim Galore!v0.6.4. Alignment was performed against the hg19 genome assembly using STAR v2.6.1d (85) and duplicates were marked using Picard MarkDuplicates v2.21.1. Quantification of transcripts using featureCounts v1.6.4 (86). Differential expression analysis was performed using edgeR v3.26.5 (87). deepTools v3.3.1 (88), dupRadar v1.14.0 (89), Qualimap v.2.2.2-dev (90), and MultiQC v1.7 were used for quality control. ERCC92 was used as RNA spike-in.

IR condensates = experiment: Imaging of IR puncta/condensates (immunofluorescence, IR-GFP) in HepG2 cells; assay type: cell-based, human
Experimental: For insulin sensitivity and resistance experiments in HepG2 cells, cells were washed with EMEM once and cultured in EMEM for two days. […] To wash out insulin, cells were washed in EMEM seven times, which includes three quick washes, three 5 min washes and a long 20 minute-wash in EMEM at 37° C. In order to investigate insulin response, cells were acutely treated for 5 min with insulin diluted in EMEM supplemented with 1.25% fatty acid-free BSA at 37° C. with 5% CO2 in a humidified incubator.
Metformin (SIGMA, D150959-5G) was resuspended in sterile water to a concentration of 1M and diluted to the reported concentrations in the figures in cell media. […]
HepG2 cells, human liver spheroids and human tissue liver sections were fixed in 4% PFA (VWR, BT140770-10X10) in PBS for 10 min at room temperature. Cells were washed in PBS three times for 5 min and then blocked with 4% IgG-free BSA (VWR, 102643-516) for 15-60 min at room temperature. Cells were then incubated with 1:500 primary antibody in 4% IgG-free BSA at 4° C. overnight. The next day, cells were washed three times with PBS and incubated with 1:500 secondary antibodies in 4% IgG-free BSA at room temperature for 1 hr covered in foil. Cells were washed three times with PBS for 5 min. DNA was stained using 1:5000 Hoechst in PBS for 5 min at RT. Cells were washed three times with PBS for 5 min, stored at 4° C. until imaging. For tissue sections, samples were mounted using Vectashield mounting media (Vector Laboratories, Inc, H-1000). LSM880 microscope with Airyscan detector (ZEISS) was used for image acquisition. Images were then processed using Fiji/ImageJ v2.1.0/153c.
Cells expressing endogenous IR tagged with GFP were grown on 35 mm glass bottom dishes (MatTek Corporation, P35G-1.5-20-C). Cells were imaged at 37° C. using the SM880 Microscope with Airyscan detector with 63× objective and Zen Black software (ZEISS) at the W.M. Keck Microscopy Facility, MIT. Images were then processed using Fiji/ImageJ v2.1.0/153c.
To quantify IR fluorescent signal in puncta, Fiji/ImageJ v2.1.0/153c was used. A circle or an oval was drawn around IR puncta using the oval selection tool and the average fluorescence intensity in the circle/oval (=in the puncta) was determined using the measure tool on Fiji. Background was then subtracted as previously described. To quantify IR fluorescent signal at puncta in various cellular compartments, applicant identified the location of the plasma membrane, cytoplasm, nucleus and RNA FISH spots as follows. The plasma membrane location was identified based on IR immunofluorescence signal, IR-GFP fluorescent signal or CK18 immunofluorescence signal or cell edge. The nucleus was determined by the Hoechst stain for immunofluorescence and tc-PALM experiments or by IR-GFP fluorescence when HepG2 cells expressing IR-GFP were imaged. Given the overlap between Hoechst fluorescence and GFP fluorescence, artefactual green fluorescence coming from the Hoechst confounded IR puncta identification in the nucleus. Since the differences in IR puncta intensity and concentration between cytoplasm and nucleus in HepG2 cells was clear, nuclear outline was easily drawn based on IR-GFP fluorescent signal. Cytoplasm was considered the region between the plasma membrane and the nucleus. RNA FISH spots were identified based on RNA FISH probe fluorescence. Within the FISH spot, IR intensity was measured using the measure tool.
To estimate the number of IR puncta at the plasma membrane, cytoplasm, nucleus or in entire cells, IR puncta were initially counted in a cell slice using Fiji. The number obtained from the cell slice was then multiplied based on the estimated size of the plasma membrane, cytoplasm, nucleus or entire cell, which were obtained considering the length and width of the cell under investigation and the estimated height (˜5 um). […]

[1] = insulin sensitive HepG2 cells, acute 3 nM insulin
[2] = insulin resistant HepG2 cells, metformin concentration series (FIG. 5A,B)

insulin: insulin (Sigma Aldrich, I9278-5ML) used for acute stimulation and chronic physiological or pathological exposure
SMAD7 gene expression (SMAD7; insulin resistant cells, acute insulin stimulation): nor did it cause upregulation of SMAD7 gene expression; also recorded: nor did it upregulate SMAD7 gene expression | SMAD7 expression (SMAD7; insulin sensitive cells, before and after insulin stimulation (RNA-seq)): upregulated | incorporation of additional IR into condensates/puncta (IR condensates; insulin resistant HepG2 cells, acute insulin (3 nM)): did not promote incorporation of additional IR into condensates; also recorded: did not promote incorporation of additional IR into puncta | IR signal intensity in puncta (IR condensates; [1]): caused an increase; also recorded: elevated IR-GFP signal in these puncta; also recorded: promotes an increase in IR-GFP signal in IR puncta | number of IR puncta in the cytoplasm and nucleus (IR condensates; [1]): caused an increase; also recorded: increased numbers of cytoplasmic and nuclear puncta; also recorded: an increase in the number of IR puncta in the nucleus and cytoplasm | IR-incorporation into condensates over a range of insulin concentrations (IR condensates; insulin-sensitive cells, 0, 0.1, 1, 10, 100 nM insulin 5 min (FIGS. 17G-17H)): non-linear transition

CN(C)C(=N)N=C(N)N [metformin, reference compound]
SMAD7 gene expression (SMAD7; metformin-treated insulin resistant cells): elevated | IR condensate rescue (IR condensates; insulin resistant HepG2 cells, 12.5 uM metformin): significant; also recorded: evident | intensity of IR signal in condensates (IR condensates; [2]): dose-dependent increase | number of IR containing condensates (IR condensates; [2]): dose-dependent increase | effect on IR condensates (IR condensates; insulin sensitive HepG2 cells, 50 nM metformin as printed (FIG. 13A)): little or no effect on IR condensates | IR signal in puncta (IR condensates; insulin-resistant IR-GFP HepG2 cells, 12.5 μM metformin, 3 nM insulin 5 min (FIGS. 16D-16E, 30A)): partially restored IR signal in these puncta | effect on IR puncta / IR condensates (IR condensates; insulin-sensitive HepG2 IR-GFP cells with or without metformin (50 μM in FIG. 30B), 3 nM insulin 5 min): little or no effect on IR puncta; also recorded: does not affect IR condensates in insulin sensitive cells

TNFα
insulin-stimulated IR incorporation into puncta (IR condensates; HepG2 cells, 2 days pathological TNFα or high nutrients, 3 nM insulin 5 min (FIG. 27)): caused a decrease in insulin-stimulated IR incorporation into puncta
